Measurements as given in PMC10408038 (Journal of medicinal chemistry, 2022).

Columns and labels:
NCI-H522 cells [1] = test: C11-BODIPY lipid peroxidation assay; type: cell-based; settings: 3 h or 6 h treatment
TXRD1 = biological target: T1, TXRD1 (Homo sapiens, UniProt Q16881); test: Pulldown with Biotin-TAMRA and western blot analysis, TXRD1; type: cell-based; settings: NCI-H522; western blot
T1 sequence (Q16881 151-649 limits assumed): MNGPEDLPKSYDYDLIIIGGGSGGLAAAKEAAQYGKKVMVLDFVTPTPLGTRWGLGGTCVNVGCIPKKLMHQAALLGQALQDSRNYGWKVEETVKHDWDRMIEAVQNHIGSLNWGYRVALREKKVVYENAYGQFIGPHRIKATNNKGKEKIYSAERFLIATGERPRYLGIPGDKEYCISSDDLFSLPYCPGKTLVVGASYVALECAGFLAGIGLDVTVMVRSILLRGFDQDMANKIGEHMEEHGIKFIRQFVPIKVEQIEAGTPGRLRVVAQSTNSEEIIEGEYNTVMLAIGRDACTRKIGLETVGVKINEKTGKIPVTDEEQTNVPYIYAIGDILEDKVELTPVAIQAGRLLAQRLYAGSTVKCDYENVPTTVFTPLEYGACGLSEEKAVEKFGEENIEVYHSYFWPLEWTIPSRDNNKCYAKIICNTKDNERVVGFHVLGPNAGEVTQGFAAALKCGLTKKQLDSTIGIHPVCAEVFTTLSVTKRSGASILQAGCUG

NCI-H522 cells [2] = test: Cell viability assay; settings: for Fold Change: ratio of IC50 (HCT-116)/ IC50 (NCI-H522); for fold increase of IC50 in the presence of Liproxstatin-1: NCI-H522, Liproxstatin-1 (0.25 μM); for IC50: cell line not given
NCI-H522 cells [3] = test: Incubation time50; type: cell-based; settings: RSL3 0.5 μM, 45 2 μM
NCI-H522 cells [4] = test: Liproxstatin-1 rescue experiments; type: cell-based; settings: for rescue of cytotoxicity by Liproxstatin-1: compound at 2–3 times the IC50, Liproxstatin-1 0.25 μM
NCI-H522 cells [5] = test: In-gel fluorescence labeling competition with probe; type: cell-based; settings: competitor 20 μM
GSTO1 = biological target: T2, GSTO1 (Homo sapiens, UniProt P78417); test: Pulldown with Biotin-TAMRA and western blot analysis, GSTO1; type: cell-based; settings: NCI-H522; probe 10 μM; western blot
T2 sequence (P78417 1-241): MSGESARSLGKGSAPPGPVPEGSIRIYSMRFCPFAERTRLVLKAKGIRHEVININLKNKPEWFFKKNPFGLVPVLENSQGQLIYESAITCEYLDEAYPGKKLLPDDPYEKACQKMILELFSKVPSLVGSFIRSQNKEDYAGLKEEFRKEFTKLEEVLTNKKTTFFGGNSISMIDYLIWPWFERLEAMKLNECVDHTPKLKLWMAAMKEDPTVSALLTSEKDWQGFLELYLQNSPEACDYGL

GPX4 = biological target: T3, GPX4 (Homo sapiens, UniProt P36969); test: Pulldown with Biotin-TAMRA and western blot analysis, GPX4; type: cell-based; settings: NCI-H522; probe 10 μM; western blot
T3 sequence (P36969 28-197 limits assumed): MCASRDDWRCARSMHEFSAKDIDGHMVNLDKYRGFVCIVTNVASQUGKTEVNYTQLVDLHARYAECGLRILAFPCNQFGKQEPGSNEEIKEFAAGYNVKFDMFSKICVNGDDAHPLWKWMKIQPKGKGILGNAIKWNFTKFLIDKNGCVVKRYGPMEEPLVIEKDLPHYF

[6] = NMR kinetic study of thiol addition; type: physicochemical; settings: DMSO-d6
[7] = in the presence of DABCO, N-Boc-cysteine methyl ester 10 equiv.

C=Cc1nc2ccccc2[se]1 [Compound 42, 2-vinylbenzo[d][1,3]selenazole]
C11-Bodipy oxidation (lipid peroxide levels) versus DMSO (NCI-H522 cells [1]): marginally increase C11-Bodipy oxidation

C#CCNC(=O)c1csc(C#Cc2ccccc2)n1 [Compound 66, 2-(phenylethynyl)-N-(prop-2-yn-1-yl)thiazole-4-carboxamide]
labeling of TXRD1 in pulldown (TXRD1): has the ability to label this protein

(E)-N-(4-chlorophenyl)-3-(2-ethynylthiazol-5-yl)acrylamide [Compound 16]
Fold Change (NCI-H522 cells [2]): 62.64

N-(4-chlorophenyl)-2-ethynylthiazole-5-carboxamide [Compound 10]
Fold Change (NCI-H522 cells [2]): 29.40

COC(=O)c1ccc([C@H]2c3[nH]c4ccccc4c3CC(C(=O)OC)N2C(=O)CCl)cc1 (stereo partly drawn) [RSL3, reference compound]
incubation time after which cells cannot be rescued by washing off the drug (NCI-H522 cells [3]): 1 to 2 h

C#Cc1nc(C(=O)N2CCN(C(c3ccc(Cl)cc3)c3ccc(Cl)cc3)CC2)cs1 [BCP-T.A, (4-(bis(4-chlorophenyl)methyl)piperazin-1-yl)(2-ethynylthiazol-4-yl)methanone]
C11-Bodipy oxidation (lipid peroxide levels) versus DMSO (NCI-H522 cells [1]): increases lipid peroxides | fold increase of IC50 in the presence of Liproxstatin-1 (NCI-H522 cells [2]): approximately 500 fold | rescue of cytotoxicity by Liproxstatin-1 (NCI-H522 cells [4]): rescues cells

2-ethynyl-N-(4-methoxyphenyl)thiazole-5-carboxamide [Compound 8]
Fold Change (NCI-H522 cells [2]): 12.52

C#CC1=Nc2ccccc2C(C)(C)O1 [Compound 2, 2-ethynyl-4,4-dimethyl-4H-benzo[d][1,3]oxazine, reference compound]
rescue of cytotoxicity by Liproxstatin-1 (NCI-H522 cells [4]): significant rescue | competition with probe (65) labeling (NCI-H522 cells [5]): high competition

Cn1c(I)nc2ccccc21 [Compound 31, 2-iodo-1-methyl-1H-benzo[d]imidazole]
C11-Bodipy oxidation (lipid peroxide levels) versus DMSO (NCI-H522 cells [1]): indistinguishable from the corresponding DMSO treatment | rescue of cytotoxicity by Liproxstatin-1 (NCI-H522 cells [4]): kill NCI-H522 cells at the same rates both in the absence and presence of Liproxstatin-1

C#CCNC1CCC(c2csc(C#C)n2)=C1C (stereo not drawn) [Compound 64, 3-(2-ethynylthiazol-4-yl)-2-methyl-N-(prop-2-yn-1-yl)cyclopent-2-en-1-amine]
C11-Bodipy oxidation (lipid peroxide levels) versus DMSO (NCI-H522 cells [1]): increased levels of lipid peroxides | rescue of cytotoxicity by Liproxstatin-1 (NCI-H522 cells [4]): significant rescue

C#CCNC(=O)c1csc(C#C)n1 [Compound 65, 2-ethynyl-N-(prop-2-yn-1-yl)thiazole-4-carboxamide]
enrichment of GSTO1 in pulldown (GSTO1): selectively enriched | C11-Bodipy oxidation (lipid peroxide levels) versus DMSO (NCI-H522 cells [1]): increased levels of lipid peroxides | rescue of cytotoxicity by Liproxstatin-1 (NCI-H522 cells [4]): significant rescue | enrichment of GPX4 in pulldown (GPX4): selectively enriched

C#Cc1nc(C(=O)OCC)cs1 [Compound 22, ethyl 2-ethynylthiazole-4-carboxylate]
half-life (t1/2) of thiol addition ([6]; in the absence of DABCO): 4.43 h | half-life (t1/2) of thiol addition [6, 7]: 0.315 h | cells rescued by Liproxstatin-1 (NCI-H522 cells [4]; (22) 10 μM, Liproxstatin-1 0.25 μM): 100%

C#Cc1nc2ccccc2s1 [Compound 45, 2-ethynylbenzo[d]thiazole]
half-life (t1/2) of thiol addition ([6]; in the absence of DABCO): > 6 h | half-life (t1/2) of thiol addition [6, 7]: < 0.083 h | incubation time after which cells cannot be rescued by washing off the drug (NCI-H522 cells [3]): 1 to 2 h | competition with probe (65) labeling (NCI-H522 cells [5]): high competition

(E)-1-(4-(bis(4-chlorophenyl)methyl)piperazin-1-yl)-3-(2-ethynylthiazol-5-yl)prop-2-en-1-one [Compound 78]
IC50 (NCI-H522 cells [2]; scheme 5D): 6 nM

C=Cc1nc2ccccc2n1C [Compound 39, 1-methyl-2-vinyl-1H-benzo[d]imidazole]
C11-Bodipy oxidation (lipid peroxide levels) versus DMSO (NCI-H522 cells [1]): marginally increase C11-Bodipy oxidation | rescue of cytotoxicity by Liproxstatin-1 (NCI-H522 cells [4]): kill NCI-H522 cells at the same rates both in the absence and presence of Liproxstatin-1

2-ethynyl-N-phenylthiazole-5-carboxamide [Compound 9]
Fold Change (NCI-H522 cells [2]): 7.39

Cc1onc(C(=O)N2CCN(C(c3ccc(Cl)cc3)c3ccc(Cl)cc3)CC2)c1[N+](=O)[O-] [ML-210, (4-(bis(4-chlorophenyl)methyl)piperazin-1-yl)(5-methyl-4-nitroisoxazol-3-yl)methanone, reference compound]
fold increase of IC50 in the presence of Liproxstatin-1 (NCI-H522 cells [2]): about 800 fold

(4-ethylpiperazin-1-yl)(2-ethynylthiazol-5-yl)methanone [Compound 75]
IC50 (NCI-H522 cells [2]; scheme 5 analogs): > 1000 nM

CCOc1ccccc1-n1c(C(C)N2CCN(C(=O)COc3ccc(Cl)cc3)CC2)nc2ccccc2c1=O (stereo not drawn) [erastin]
competition with probe (65) labeling (NCI-H522 cells [5]): no competition was observed
